Measured values reported in paper PMC8713167, “New Insights into the Structure–Activity Relationship and Neuroprotective Profile of Benzodiazepinone Derivatives of Neurounina-1 as Modulators of the Na^+/Ca^2+ Exchanger Isoforms” (Journal of Medicinal Chemistry, 2021).

What was measured:
NCX3 = biological target: T1, NCX3 (Rattus norvegicus, UniProt P70549); experiment: High-throughput screening of NCX3 reverse mode, Fluo-4-loaded BHK-NCX3 cells, Na+-free pulse; type: cell-based; conditions: CTL (100), concentration not given (10 nM and 10 μM screened)
T1 construct: expressed in transfected cells; host or cells: BHK (baby hamster kidney) cells, stably transfected

NCX1 = biological target: T2, NCX1 (Canis lupus familiaris, UniProt P23685); experiment: High-throughput screening of NCX1 reverse mode, Fluo-4-loaded BHK-NCX1 cells, Na+-free pulse; type: cell-based, dog; conditions: for Activity on NCX (SAR discussion, in words): NCX1/NCX3 reverse-mode screening; for Fluo-experiments on BHK-NCX1: NCX1 reverse mode, Na+-free, CTL (100), concentration not given (10 nM and 10 μM screened)
T2 construct: expressed in transfected cells; host or cells: BHK (baby hamster kidney) cells, stably transfected

T1 sequence (P70549 31-927): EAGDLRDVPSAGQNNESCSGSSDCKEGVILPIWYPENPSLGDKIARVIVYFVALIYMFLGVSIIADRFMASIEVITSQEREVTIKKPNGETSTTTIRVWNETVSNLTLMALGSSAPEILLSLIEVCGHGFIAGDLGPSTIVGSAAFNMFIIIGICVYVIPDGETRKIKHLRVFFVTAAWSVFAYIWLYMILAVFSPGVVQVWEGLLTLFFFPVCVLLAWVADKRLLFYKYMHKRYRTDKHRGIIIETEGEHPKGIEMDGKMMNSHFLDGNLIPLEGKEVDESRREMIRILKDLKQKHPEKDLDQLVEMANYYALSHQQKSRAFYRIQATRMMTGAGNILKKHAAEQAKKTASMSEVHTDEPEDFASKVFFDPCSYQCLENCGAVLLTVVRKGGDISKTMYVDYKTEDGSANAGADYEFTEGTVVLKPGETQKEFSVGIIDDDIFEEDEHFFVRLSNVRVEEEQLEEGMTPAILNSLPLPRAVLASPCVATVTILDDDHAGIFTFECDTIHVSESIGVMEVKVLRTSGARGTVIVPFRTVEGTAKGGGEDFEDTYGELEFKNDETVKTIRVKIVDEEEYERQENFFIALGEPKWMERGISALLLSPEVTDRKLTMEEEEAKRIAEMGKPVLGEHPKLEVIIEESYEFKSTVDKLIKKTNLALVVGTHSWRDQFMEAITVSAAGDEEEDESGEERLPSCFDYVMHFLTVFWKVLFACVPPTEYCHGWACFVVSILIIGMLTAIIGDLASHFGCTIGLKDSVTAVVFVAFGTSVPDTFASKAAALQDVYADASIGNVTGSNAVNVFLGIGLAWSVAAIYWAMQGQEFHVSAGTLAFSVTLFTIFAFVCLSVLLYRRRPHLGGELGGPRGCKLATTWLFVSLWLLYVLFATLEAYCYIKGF

O=C1CN=C(c2ccccc2)c2cc(Cl)ccc2N1CN1CCCC1 [Compound 2, 7-Chloro-5-phenyl-1-(pyrrolidin-1-ylmethyl)-1H-benzo[e][1,4]diazepin-2(3H)-one]
Fluo-experiments on BHK-NCX3 (NCX3): 100 | Activity on NCX (SAR discussion, in words) (NCX1): inactivity | Fluo-experiments on BHK-NCX1 (NCX1): 100

O=C1CN=C(c2ccccc2)c2cc([N+](=O)[O-])ccc2N1CN1CCCCC1 [Compound 3, 7-Nitro-5-phenyl-1-(piperidin-1-ylmethyl)-1H-benzo[e][1,4]diazepin-2(3H)-one]
Fluo-experiments on BHK-NCX3 (NCX3): 100 | Activity on NCX (SAR discussion, in words) (NCX1): complete loss of activity | Fluo-experiments on BHK-NCX1 (NCX1): 100

O=C1CN=C(c2ccccc2)c2cc([N+](=O)[O-])ccc2N1CCN1CCCCC1 [Compound 5, 7-Nitro-5-phenyl-1-[2-(piperidin-1-yl)ethyl]-1H-benzo[e][1,4]diazepin-2(3H)-one]
Fluo-experiments on BHK-NCX3 (NCX3): 100 | Activity on NCX (SAR discussion, in words) (NCX1): inactive | Fluo-experiments on BHK-NCX1 (NCX1): 100

CC1CCCCN1CCN1C(=O)CN=C(c2ccccc2)c2cc([N+](=O)[O-])ccc21 (stereo not drawn) [Compound 6, 1-[2-(2-Methylpiperidin-1-yl)ethyl]-7-nitro-5-phenyl-1H-benzo[e][1,4]diazepin-2(3H)-one]
Fluo-experiments on BHK-NCX3 (NCX3): 100 | Activity on NCX (SAR discussion, in words) (NCX1): inactive | Fluo-experiments on BHK-NCX1 (NCX1): 100

CC1CCCN(CCN2C(=O)CN=C(c3ccccc3)c3cc([N+](=O)[O-])ccc32)C1 (stereo not drawn) [Compound 7, 1-[2-(3-Methylpiperidin-1-yl)ethyl]-7-nitro-5-phenyl-1H-benzo[e][1,4]diazepin-2(3H)-one]
Fluo-experiments on BHK-NCX3 (NCX3): 100 | Activity on NCX (SAR discussion, in words) (NCX1): inactive | Fluo-experiments on BHK-NCX1 (NCX1): 100

O=C1CN=C(c2ccccc2)c2cc([N+](=O)[O-])ccc2N1CCn1ccnc1 [Compound 8, 1-[2-(1H-Imidazole-1-yl)ethyl]-7-nitro-5-phenyl-1H-benzo[e][1,4]diazepin-2(3H)-one]
Fluo-experiments on BHK-NCX3 (NCX3): 100 | Activity on NCX (SAR discussion, in words) (NCX1): complete loss of activity | Fluo-experiments on BHK-NCX1 (NCX1): 100

Cc1nccn1CCN1C(=O)CN=C(c2ccccc2)c2cc([N+](=O)[O-])ccc21 [Compound 9, 1-[2-(2-Methyl-1H-imidazole-1-yl)ethyl]-7-nitro-5-phenyl-1H-benzo[e][1,4]diazepin-2(3H)-one]
Fluo-experiments on BHK-NCX3 (NCX3): 100 | Fluo-experiments on BHK-NCX1 (NCX1): 100

O=C1CN=C(c2ccccc2)c2cc([N+](=O)[O-])ccc2N1CCN1CCN(c2ccccc2)CC1 [Compound 10, 7-Nitro-5-phenyl-1-[2-(4-phenylpiperazin-1-yl)ethyl]-1H-benzo[e][1,4]diazepin-2(3H)-one]
Fluo-experiments on BHK-NCX3 (NCX3): 100 | Fluo-experiments on BHK-NCX1 (NCX1): 100

O=C1CN=C(c2ccccc2)c2cc([N+](=O)[O-])ccc2N1CCN1CCN(c2cccc3ccccc23)CC1 [Compound 11, 1-{2-[4-(Naphthalen-1-yl)piperazin-1-yl]ethyl}-7-nitro-5-phenyl-1H-benzo[e][1,4]diazepin-2(3H)-one]
Fluo-experiments on BHK-NCX3 (NCX3): 100 | Fluo-experiments on BHK-NCX1 (NCX1): 100

O=C(CN1C(=O)CN=C(c2ccccc2)c2cc([N+](=O)[O-])ccc21)N1CCCC1 [Compound 12, 7-Nitro-1-[2-Oxo-2-(pyrrolidin-1-yl)ethyl]-5-phenyl-1H-benzo[e][1,4]diazepin-2(3H)-one]
Fluo-experiments on BHK-NCX3 (NCX3): 100 | Fluo-experiments on BHK-NCX1 (NCX1): 100

O=C(CN1C(=O)CN=C(c2ccccc2)c2cc([N+](=O)[O-])ccc21)N1CCCCC1 [Compound 13, 7-Nitro-1-[2-Oxo-2-(piperidin-1-yl)ethyl]-5-phenyl-1H-benzo[e][1,4]diazepin-2(3H)-one]
Fluo-experiments on BHK-NCX3 (NCX3): 100 | Fluo-experiments on BHK-NCX1 (NCX1): 100

CC1CCCN(C(=O)CN2C(=O)CN=C(c3ccccc3)c3cc([N+](=O)[O-])ccc32)C1 (stereo not drawn) [Compound 15, 1-3-[(3-Methylpiperidin-1-yl)-2-oxoethyl]-7-nitro-5-phenyl-1H-benzo[e][1,4]-diazepin-2(3H)-one]
Fluo-experiments on BHK-NCX3 (NCX3): 100 | Fluo-experiments on BHK-NCX1 (NCX1): 100

O=C1CN=C(c2ccccc2)c2cc([N+](=O)[O-])ccc2N1CC(=O)n1ccnc1 [Compound 16, 1-[2-(1H-Imidazole-1-yl)-2-oxoethyl]-7-nitro-5-phenyl-1H-benzo[e][1,4]diazepin-2(3H)-one]
melting point: 120 to 121 °C | Fluo-experiments on BHK-NCX3 (NCX3): 100 | Fluo-experiments on BHK-NCX1 (NCX1): 100

Cc1nccn1C(=O)CN1C(=O)CN=C(c2ccccc2)c2cc([N+](=O)[O-])ccc21 [Compound 17, 1-[2-(2-Methyl-1H-imidazole-1-yl)-2-oxoethyl]-7-nitro-5-phenyl-1H-benzo[e][1,4]diazepin-2(3H)-one]
Fluo-experiments on BHK-NCX3 (NCX3): 100 | Fluo-experiments on BHK-NCX1 (NCX1): 100

O=C(CN1C(=O)CN=C(c2ccccc2)c2cc([N+](=O)[O-])ccc21)N1CCN(c2ccccc2)CC1 [Compound 18, 7-Nitro-1-[2-Oxo-2-(4-phenylpiperazin-1-yl)ethyl]-5-phenyl-1H-benzo[e][1,4]diazepin-2(3H)-one]
Fluo-experiments on BHK-NCX3 (NCX3): 100 | Fluo-experiments on BHK-NCX1 (NCX1): 100

O=C(CN1C(=O)CN=C(c2ccccc2)c2cc([N+](=O)[O-])ccc21)N1CCN(c2cccc3ccccc23)CC1 [Compound 19, 1-{2-[4-(Naphthalen-1-yl)piperazin-1-yl]-2-oxoethyl}-7-nitro-5-phenyl-1H-benzo[e][1,4]-diazepin-2(3H)-one]
Fluo-experiments on BHK-NCX3 (NCX3): 100 | Fluo-experiments on BHK-NCX1 (NCX1): 100
